Experimental data: patent publication US12133900B2, “Synthesis and composition of amino acid linking groups conjugated to compounds used for the targeted imaging of tumors” (Purdue Research Foundation, priority 2013, dated 2024)
Entries after “also recorded” stand apart in the source; their conditions may differ.

Assays:
FR-positive M109 tumors = assay: Imaging and biodistribution, M109 metastatic model; type: in vivo, mice; settings: 2 nmol, 2 h
Procedure: Seven-week-old female nu/nu mice were inoculated subcutaneously with KB (1.0×10^6/mouse in RPM11640 medium), IGROV (5.0×10^6/mouse in 50% high concentrated matrigel+RPM11640 medium), SKOV3 (5.0×10^6/mouse in RPM11640 medium), OVCAR3 (5.0×10^6/mouse in RPM11640 medium), MDA-MB231 (1.0×10^6/mouse in RPM11640 medium), M109 (1.0×10^6/mouse in RPM11640 medium) or A549 cells (2.0×10^6/mouse in RPM11640 medium) on the shoulder. Growth of the tumors was measured in perpendicular directions every 2 days using a caliper (body weights were monitored on the same schedule), and the volumes of the tumors were calculated as 0.5×L×W^2 (L=longest axis and W=axis perpendicular to L in millimeters). Once tumors reached approximately 300-400 mm3 in volume, animals (3-5 mice/group) were intravenously injected with the compound of interest in PBS (for dose escalation in KB tumor model: 0.3-90 nmol, for time dependent in KB tumor model: 2 or 10 nmol, and for general whole body imaging and biodistribution for all tumor models: 2 nmol, in 100 μL in PBS per mouse). […]
(§1) Following whole body imaging, animals were dissected and selected tissues (heart, lung, liver, spleen, kidneys, stomach, small intestine, large intestine, muscle, skin, and tumor) were analyzed for fluorescence activity using IVIS imager using same settings as in whole body imaging.

[1] = tested on: FR-positive MDA-MB 231 orthotopic tumors; assay: Imaging and biodistribution, MDA-MB 231 orthotopic model; type: in vivo, mice; settings: 2 nmol, 2 h
Procedure: Breast cancer was developed by implanting breast cancer cells in the […] fat pad of the mouse.
as §1

FR-alpha and beta = settings: cited from earlier work
[2] = tested on: FR-positive SKOV3 orthotopic tumor; assay: Imaging and biodistribution, SKOV3 ovarian orthotopic model; type: in vivo, mice; settings: 2 nmol, 2 h
Procedure: (§2) Ovarian cancer was developed through surgical implantation of ovarian cancer cell lines near the ovarian bursa of the mouse. Seven-week-old female athymic nude mice were given 1-5% isoflurane for anesthesia and subcutaneous injection of 5 mg/kg meloxicam preoperatively for analgesia. The mice were placed dorsal side up and washed above the right ovary (just lateral to the epaxial muscles and ˜1.15 cm caudal to the rib cage) with a chlorhexidine scrub to ensure a sterile area for incision. After an insertion was made using scalpel through the skin, the peritoneal lining was lifted to make a small incision using a scissor and widened using a forceps. The ovarian fat pad was carefully lifted out and placed on a wetted gauze pad adjacent to the incision. Ovarian cancer cells (50,000 cells in 5 μL) were injected between the bursa and the ovary using a 30 gage needle. After placing the ovarian fat pad back into the body cavity, the body wall was closed using 3-0 or 4-0 vicryl and the skin was closed using staples.
as §1

[3] = tested on: FR-positive MDA-MB 231 tumor xenografts; assay: Imaging and biodistribution, MDA-MB 231 breast xenograft; type: in vivo, mice
Procedure: Seven-week-old female nu/nu mice were inoculated subcutaneously with KB (1.0×10^6/mouse in RPM11640 medium), IGROV (5.0×10^6/mouse in 50% high concentrated matrigel+RPM11640 medium), SKOV3 (5.0×10^6/mouse in RPM11640 medium), OVCAR3 (5.0×10^6/mouse in RPM11640 medium), MDA-MB231 (1.0×10^6/mouse in RPM11640 medium), M109 (1.0×10^6/mouse in RPM11640 medium) or A549 cells (2.0×10^6/mouse in RPM11640 medium) on the shoulder. Growth of the tumors was measured in perpendicular directions every 2 days using a caliper (body weights were monitored on the same schedule), and the volumes of the tumors were calculated as 0.5×L×W^2 (L=longest axis and W=axis perpendicular to L in millimeters). Once tumors reached approximately 300-400 mm3 in volume, animals (3-5 mice/group) were intravenously injected with the compound of interest in PBS (for dose escalation in KB tumor model: 0.3-90 nmol, for time dependent in KB tumor model: 2 or 10 nmol, and for general whole body imaging and biodistribution for all tumor models: 2 nmol, in 100 μL in PBS per mouse). For whole body imaging and biodistribution studies, animals were euthanized 2 hours after administration of the compound of interest by CO2 asphyxiation. For time dependent studies, animals were imaged under anesthesia using isoflurane. Whole body imaging (intact tumor) experiments was then performed using a Caliper IVIS Lumina II Imaging Station with Living Image 4.0 software (PerkinElmer Inc, MA).
as §1

[4] = Chemical and optical properties of NIR dyes (Table 1); type: physicochemical
[5] = molecular target: T1, folate receptor (FR-α) on KB cells (Homo sapiens, UniProt P15328); assay: Competition binding with [3H]-folic acid on KB cells
T1 construct: KB cells that overexpress FR-α were seeded in 24-well (100,000 cells/well) Falcon plates; host or cells: KB cells (human; described as a HeLa derivative)
T1 sequence (P15328 25-234): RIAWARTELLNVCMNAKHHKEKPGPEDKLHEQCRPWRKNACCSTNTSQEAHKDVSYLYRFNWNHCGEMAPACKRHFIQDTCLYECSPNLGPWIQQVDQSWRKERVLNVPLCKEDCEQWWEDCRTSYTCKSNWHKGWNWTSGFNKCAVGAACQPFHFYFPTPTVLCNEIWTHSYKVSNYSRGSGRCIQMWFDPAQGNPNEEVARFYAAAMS
Procedure: KB cells that overexpress FR-α were seeded in 24-well (100,000 cells/well) Falcon plates and allowed to form monolayers over a period of 24 h. […] After incubating for 1 hour at 37° C., cells were rinsed with PBS (2×0.5 mL) and 1M trichloroacetic acid (1×0.5 mL) to remove any unbound radioactive materials. After adding 1% sodium dodecylsulfate in PBS (0.5 mL), cells were transferred into individual scintillation vials containing Ecolume scintillation cocktail (3.0 mL) and counted in a liquid scintillation analyzer. The relative binding affinities were calculated using a plot of cell bound radioactivity versus the concentration of the test article using Graph Pad Prism 4.
(§3) KB cells that overexpress FR-α were seeded in 24-well (100,000 cells/well) Falcon plates (BD Biosciences, CA) and allowed to form monolayers over a period of 12 h. […] After incubating for 1 h at 37° C., cells were rinsed with PBS (3×0.5 mL, Gibco, NY) to remove any unbound radioactive materials. After adding 0.25 M sodium hydroxide (0.5 mL) and incubating for 12 h at 4° C., cells were transferred into individual scintillation vials containing Ecolite scintillation cocktail (3.0 mL, MP Biomedicals, OH) and counted in a liquid scintillation analyzer (Packard). The relative binding affinities were calculated using a plot of % cell bound radioactivity versus the log concentration of the test article using GraphPad Prism 4.
as §3, with “12 hours.” for “12 h.”, “1 hour” for “1 h”, “12 hours” for “12 h”

[6] = tested on: FR-positive IGROV orthotopic ovary tumor; assay: Imaging and biodistribution, IGROV ovarian orthotopic model; type: in vivo, mice; settings: 2 nmol, 2 h
Procedure: as §2, §1

CC1(C)C(/C=C/C2=C(Oc3ccc(C[C@H](NC(=O)c4ccc(NCc5cnc6nc(N)[nH]c(=O)c6n5)cc4)C(=O)[O-])cc3)C(=C/C=C3\N(CCCCS(=O)(=O)[O-])c4ccc(S(=O)(=O)[O-])cc4C3(C)C)/CCC2)=[N+](CCCCS(=O)(=O)[O-])c2ccc(S(=O)(=O)[O-])cc21.[H+].[H+].[H+].[H+] [OTL-0038, Pte-Tyr-S0456]
tumor-to-normal tissue ratios (FR-positive M109 tumors): excellent tumor-to-normal tissue ratios | whole body imaging: accumulation (FR-positive M109 tumors): accumulated mainly in the FR-positive M109 tumors metastasize to the liver, lung and spleen | ex-vivo tissue biodistribution [1]: highest fluorescence intensities were observed in FR-positive tumors and kidneys | tumor-to-normal tissue ratios [1]: excellent tumor-to-normal tissue ratios | whole body imaging: accumulation [1]: accumulated mainly in the FR-positive MDA-MB 231 orthotopic tumors | affinity for FR-alpha versus beta (FR-alpha and beta): binds to FR-alpha and beta with same affinity | accumulation (tissue biodistribution) [2]: accumulated mainly in the ovary with FR-positive SKOV3 orthotopic tumor | tumor-to-normal tissue ratios [2]: excellent tumor-to-normal tissue ratios | ex-vivo tissue biodistribution ([3]; 2 nmol, 2 h): highest fluorescence intensities were observed in FR-positive tumors and kidneys | tumor-to-normal tissue ratios ([3]; 2 nmol, 2 h): excellent tumor-to-normal tissue ratios | whole body imaging: accumulation ([3]; 2 nmol, 2 h, listed as OTL38): accumulated mainly in the FR-positive MDA-MB 231 tumor xenografts; also recorded: mainly accumulated in FR-positive MDA-MB 231 tumor xenografts and kidneys | accumulation in tumor and kidneys after blocking the FR ([3]; 100 fold excess of folic acid prior to 2 nmol, 2 h): inhibited by the administration of 100 fold excess of folic acid | specificity for FR (conclusion) ([3]; blocking with excess folic acid): highly specific for FR | E [4]: 272000 M⁻¹ cm⁻¹ | Q (%) [4]: 15.6% | Stokes Shift (nm) [4]: 20 nm | λem (nm) [4]: 776 nm | λex (nm) [4]: 796 nm | affinity and specificity for folate receptor (words) ([5]; KB cells): compares well with the binding affinity of folic acid | competition with [3H]-folic acid ([5]; KB cells): competed well with [3H]-folic acid | affinity and specificity for folate receptor (words) ([5]; KB cells, listed as OTL38): binds to FR with high affinity and specificity | affinity and specificity for folate receptor (words) ([5]; KB cells, listed as Pte-Tyr-S0456): binds folate receptor with high affinity and specificity | Relative binding affinities ([5]; relative affinity of folic acid=1, <1 weaker): 0.71 | accumulation (tissue biodistribution) [6]: accumulated mainly in the FR-positive IGROV orthotopic ovary tumor | tumor-to-normal tissue ratios [6]: excellent tumor-to-normal tissue ratios
